Experimental findings from patent publication US9877957B2, “Tetrahydroisoquinoline derivatives useful as inhibitors of diacylglyceride O-acyltransferase 2” (Merck Sharp & Dohme Corp., priority 2014, dated 2018) are described below.

One may read the IC50 as the point on the concentration scale where inhibition reaches its midpoint.

Sequence of hDGAT2 (Q96PD7 whole entry): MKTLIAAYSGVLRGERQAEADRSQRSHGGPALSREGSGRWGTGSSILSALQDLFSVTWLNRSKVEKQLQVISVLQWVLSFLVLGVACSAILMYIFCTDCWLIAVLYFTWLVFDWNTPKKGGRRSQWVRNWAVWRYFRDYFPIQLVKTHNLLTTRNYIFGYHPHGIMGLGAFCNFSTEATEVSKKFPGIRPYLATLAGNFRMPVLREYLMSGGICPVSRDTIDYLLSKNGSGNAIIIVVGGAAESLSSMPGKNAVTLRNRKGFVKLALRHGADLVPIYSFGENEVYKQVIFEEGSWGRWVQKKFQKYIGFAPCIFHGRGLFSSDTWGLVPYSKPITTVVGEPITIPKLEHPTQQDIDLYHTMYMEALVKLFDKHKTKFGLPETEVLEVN

This test addresses hDGAT2 (Homo sapiens (Human), UniProt Q96PD7). Briefly: DGAT2 Enzymatic Activity Assay (triolein formation, LC/MS/MS). Type of test: biochemical. The settings on record: Sf-9 membrane prep expressing hDGAT2; 25 μM diolein, 10 μM oleoyl-CoA; room temperature; read-out: IC50 values for inhibition of DGAT2. Here is the method: In Vitro DGAT2 ASSAYS and Determination of IC50 Values for DGAT2 Inhibitors
Insect Cell Expression and Membrane Preparation
Sf-9 insect cells were maintained in Grace's insect cell culture medium with 10% heated-inactivated fetal bovine serum, 1% Pluronic F-68 and 0.14 μg/ml Kanamycine sulfate in Erlenmeyer flasks at 28° C. in a shaker incubator. After infection with untagged hDGAT2 baculovirus at multiplicity of infection (MOI) 0.1 for 48 hours, cells were harvested. Cell pellets were suspended in buffer containing 10 mM Tris-HCl (pH 7.5), 1 mM EDTA (pH 8.0), 250 mM sucrose and Complete Protease Inhibitor Cocktail (Roche Diagnostics Corp., Indianapolis, Ill.), and sonicated on ice. Membrane fractions were isolated by ultracentrifugation (100,000× g pellet), resuspended in the same buffer, and frozen (−80° C.) for later use. The protein concentration was determined with the BCA Protein Assay kit (Pierce Biotechnology Inc., Rockford, Ill.). Expression of protein levels was analyzed by immunoblotting with goat polyclonal DGAT2 antibody C-15 and donkey anti-goat IgG HRP (Santa Cruz Biotechnology, Inc., Santa Cruz, Calif.) followed by detection with ECL reagent (GE Healthcare, Piscataway, N.J.).
LC/MS/MS analyses were performed using Thermal Fisher's LX4-TSQ Vantage system. This system consists of an Agilent binary high-performance liquid chromatography (HPLC) pumps and a TSQ Vantage triple quadrupole MS/MS instrument. For each sample, 2 μL samples from the top organic layer of in-plate liquid-liquid extraction were injected onto a Thermo Betabasic C4 column (2.1 mm×20 mm, 5 μm particle size). The samples were then eluted using the following conditions; mobile phase: methanol/water with 0.1% ammonium format=92/8 (v/v), flow rate: 1 mL/min, temperature: 25° C. Data was acquired in positive mode using a heated electrospray ionization (HESI) interface. The operational parameters for the TSQ Vantage MS/MS instrument were a spray voltage of 3000 V, capillary temperature of 280° C., vaporizer temperature 400° C., shealth gas 60 arbitrary unit, Aux gas 40 arbitrary units, S-lens 113 and collision gas 0.16 Pascals. […] (SRM) chromatograms of triolein (Q1: 902.9>Q3:602.3) and internal standard (Q1: 902.9>Q3:602.3) were collected for 40 sec. The peak area was integrated by Xcalibur Quan software. The ratio between the triolein generated in the reaction and spiked in internal standard were used to generate percentage inhibition and IC50 values. Compound percentage inhibition was calculated by the following formula: Inhibition %=1−[(compound response−low control)/(high control−low control)]×100%. Potent compounds were titrated and IC50 were calculated by 4 parameter sigmoidal curve fitting formula.
DGAT2 Enzymatic Activity Assay
DGAT2 activity was determined by measuring the amount of enzymatic product triolein (1,2,3-Tri(cis-9-octadecenoyl)glycerol) using the membrane prep mentioned above. The assay was carried out in deep well 384 plates in a final volume of 40 μL at room temperature. The assay mixture contained the following: assay buffer (100 mM Tris·Cl, pH 7.0, 20 mM MgCl2, 5% ethanol), 25 μM of diolein, 10 μM of oleoyl-CoA and 10 ng/μL of DGAT2 membrane.
As to `CC(C)(C)NC(=O)N1CCc2c(-c3cccc(C(F)(F)F)c3)ccc(C(=O)N[C@@H](CO)c3ccc(C(F)(F)F)nc3)c2C1` (racemic) [Example 21, (R/S)-N^2-(tert-butyl)-N^8-(2-hydroxy-1-(6-(trifluoromethyl)pyridin-3-yl)ethyl)-5-(3-(trifluoromethyl)phenyl)-3,4-dihydroisoquinoline-2,8(1H)-dicarboxamide], the IC50 was 214 nM.

With `CC(C)(C)NC(=O)N1CCc2c(-c3cccc(C(F)(F)F)c3)ccc(C(=O)N[C@H]3C[C@@H]3c3ccccc3)c2C1` (relative stereo) [Example 65, N^2-(tert-butyl)-N^8-((trans)-2-phenylcyclopropyl)-5-(3-(trifluoromethyl)phenyl)-3,4-dihydroisoquinoline-2,8(1H)-dicarboxamide], the 50% inhibitory concentration (IC50) was 1020 nM.

Take `CC(C)(C)NC(=O)N1CCc2c(-c3cccc(C(F)(F)F)c3)ccc(C(=O)NC[C@H]3C[C@@H]3c3ccccc3)c2C1` (relative stereo) [Example 69, N^2-(tert-butyl)-N^8-(((trans)-2-phenylcyclopropyl)methyl)-5-(3-(trifluoromethyl)phenyl)-3,4-dihydroisoquinoline-2,8(1H)-dicarboxamide]: the half-inhibitory concentration (IC50) amounted to 528 nM.

For `COC(=O)c1cccc(-c2ccc(CNC(=O)C3CCN(c4ccc(C(F)(F)F)cc4)CC3)c3c2CCN(C(=O)NC(C)(C)C)C3)c1` [Example 1, methyl 3-(2-(tert-butylcarbamoyl)-8-((1-(4-(trifluoromethyl)phenyl)piperidine-4-carboxamido)methyl)-1,2,3,4-tetrahydroisoquinolin-5-yl)benzoate], the IC50 was found to be 1.75 nM.

`CC(C)(C)NC(=O)N1CCc2c(-c3cccc(OC(F)(F)F)c3)ccc(CNC(=O)c3cc(C(F)(F)F)n[nH]3)c2C1` [Example 2, N-(tert-butyl)-5-(3-(trifluoromethoxy)phenyl)-8-((3-(trifluoromethyl)-1H-pyrazole-5-carboxamido)methyl)-3,4-dihydroisoquinoline-2(1H)-carboxamide]: the concentration for half-maximal inhibition (IC50) turned out to be 104 nM.

With `COC(=O)c1cccc(-c2ccc(CNC(=O)c3cc(C(C)(C)C)nn3C)c3c2CCN(C(=O)NC(C)(C)C)C3)c1` [Example 3, methyl 3-(8-((3-(tert-butyl)-1-methyl-1H-pyrazole-5-carboxamido)methyl)-2-(tert-butylcarbamoyl)-1,2,3,4-tetrahydroisoquinolin-5-yl)benzoate], the half-maximal inhibitory concentration (IC50) was 17 nM.

As for `COc1cccc(-c2ccc(CNC(=O)c3cc(C(F)(F)F)n[nH]3)c3c2CCN(C(=O)NC(C)(C)C)C3)c1` [Example 4, N-(tert-butyl)-5-(3-methoxyphenyl)-8-((3-(trifluoromethyl)-1H-pyrazole-5-carboxamido)methyl)-3,4-dihydroisoquinoline-2(1H)-carboxamide], the half-inhibitory concentration (IC50) is 41.4 nM.

Take `COc1cccc(-c2ccc(CNC(=O)c3nccc4ccccc34)c3c2CCN(C(=O)NC(C)(C)C)C3)c1` [Example 5, N-((2-(tert-butylcarbamoyl)-5-(3-methoxyphenyl)-1,2,3,4-tetrahydroisoquinolin-8-yl)methyl)isoquinoline-1-carboxamide]: the concentration for half-maximal inhibition (IC50) stood at 135 nM.

Consider `CC(C)(C)NC(=O)N1CCc2c(-c3cccc(C(F)(F)F)c3)ccc(C(=O)NCCc3nc4cc(Cl)ccc4[nH]3)c2C1` [Example 6, N^2-(tert-butyl)-N^8-(2-(5-chloro-1H-benzo[d]imidazol-2-yl)ethyl)-5-(3-(trifluoromethyl)phenyl)-3,4-dihydroisoquinoline-2,8(1H)-dicarboxamide], for which the IC50 was 11.9 nM.

For `CC(C)(C)NC(=O)N1CCc2c(-c3cccc(C(F)(F)F)c3)ccc(C(=O)NCCc3nc4cc(Cl)c(Cl)cc4[nH]3)c2C1` [Example 7, N^2-(tert-butyl)-N^8-(2-(5,6-dichloro-1H-benzo[d]imidazol-2-yl)ethyl)-5-(3-(trifluoromethyl)phenyl)-3,4-dihydroisoquinoline-2,8(1H)-dicarboxamide], the IC50 worked out at 15.9 nM.

Consider `CC(C)(C)NC(=O)N1CCc2c(-c3cccc(C(F)(F)F)c3)ccc(C(=O)NCCc3nc4ccc(F)cc4[nH]3)c2C1` [Example 8, N^2-(tert-butyl)-N^8-(2-(5-fluoro-1H-benzo[d]imidazol-2-yl)ethyl)-5-(3-(trifluoromethyl)phenyl)-3,4-dihydroisoquinoline-2,8(1H)-dicarboxamide], for which the IC50 came out at 32.9 nM.

For `CC(C)(C)NC(=O)N1CCc2c(-c3cccc(C(F)(F)F)c3)ccc(C(=O)NCCc3nc4ccccc4[nH]3)c2C1` [Example 9, N^8-(2-(1H-benzo[d]imidazol-2-yl)ethyl)-N^2-(tert-butyl)-5-(3-(trifluoromethyl)phenyl)-3,4-dihydroisoquinoline-2,8(1H)-dicarboxamide], the IC50 is 51.1 nM.

On to `CC(C)(C)NC(=O)N1CCc2c(-c3cccc(C(F)(F)F)c3)ccc(C(=O)NCc3cncc4ccccc34)c2C1` [Example 10, N^2-(tert-butyl)-N^8-(isoquinolin-4-ylmethyl)-5-(3-(trifluoromethyl)phenyl)-3,4-dihydroisoquinoline-2,8(1H)-dicarboxamide], for which the half-maximal inhibitory concentration (IC50) turned out to be 66.9 nM.

Take `CC(C)(C)NC(=O)N1CCc2c(-c3cccc(C(F)(F)F)c3)ccc(C(=O)NCc3cccc4cccnc34)c2C1` [Example 11]: the 50% inhibitory concentration (IC50) is 67.6 nM.

With `CC(C)(C)NC(=O)N1CCc2c(-c3cccc(C(F)(F)F)c3)ccc(C(=O)NCc3cccc4cnccc34)c2C1` [Example 12, N^2-(tert-butyl)-N^8-(isoquinolin-5-ylmethyl)-5-(3-(trifluoromethyl)phenyl)-3,4-dihydroisoquinoline-2,8(1H)-dicarboxamide], the IC50 was determined as 68.6 nM.

Consider `COc1ccc2nc(CCNC(=O)c3ccc(-c4cccc(OC(F)(F)F)c4)c4c3CN(C(=O)NC(C)(C)C)CC4)[nH]c2c1` [Example 13, N^2-(tert-butyl)-N^8-(2-(6-methoxy-1H-benzo[d]imidazol-2-yl)ethyl)-5-(3-(trifluoromethoxy)phenyl)-3,4-dihydroisoquinoline-2,8(1H)-dicarboxamide], for which the IC50 worked out at 68.9 nM.

Consider `Cc1ccc2[nH]c(CCNC(=O)c3ccc(-c4cccc(C(F)(F)F)c4)c4c3CN(C(=O)NC(C)(C)C)CC4)nc2c1` [Example 14, N^2-(tert-butyl)-N^8-(2-(5-methyl-1H-benzo[d]imidazol-2-yl)ethyl)-5-(3-(trifluoromethyl)phenyl)-3,4-dihydroisoquinoline-2,8(1H)-dicarboxamide], for which the 50% inhibitory concentration (IC50) was 103 nM.

Turning to `Cc1nc2ccccn2c1CNC(=O)c1ccc(-c2cccc(C(F)(F)F)c2)c2c1CN(C(=O)NC(C)(C)C)CC2` [Example 15, N^2-(tert-butyl)-N^8-((2-methylimidazo[1,2-a]pyridin-3-yl)methyl)-5-(3-(trifluoromethyl)phenyl)-3,4-dihydroisoquinoline-2,8(1H)-dicarboxamide], the 50% inhibitory concentration (IC50) stood at 120 nM.

As for `CC(C)(C)NC(=O)N1CCc2c(-c3cccc(C(F)(F)F)c3)ccc(C(=O)NCc3cccc4ncccc34)c2C1` [Example 16, N^2-(tert-butyl)-N^8-(quinolin-5-ylmethyl)-5-(3-(trifluoromethyl)phenyl)-3,4-dihydroisoquinoline-2,8(1H)-dicarboxamide], the IC50 was 126 nM.

Consider `CC(C)(C)NC(=O)N1CCc2c(-c3cccc(C(F)(F)F)c3)ccc(C(=O)NCc3ccc4nonc4c3)c2C1` [Example 17, N^8-(benzo[c][1,2,5]oxadiazol-5-ylmethyl)-N^2-(tert-butyl)-5-(3-(trifluoromethyl)phenyl)-3,4-dihydroisoquinoline-2,8(1H)-dicarboxamide], for which the IC50 stood at 132 nM.

Regarding `CC(C)(C)NC(=O)N1CCc2c(-c3cccc(C(F)(F)F)c3)ccc(C(=O)NCCc3cn4ccsc4n3)c2C1` [Example 18, N^2-(tert-butyl)-N^8-(2-(imidazo[2,1-b]thiazol-6-yl)ethyl)-5-(3-(trifluoromethyl)phenyl)-3,4-dihydroisoquinoline-2,8(1H)-dicarboxamide], the concentration for half-maximal inhibition (IC50) turned out to be 133 nM.
